Laboratory results reported in ChEMBL document CHEMBL1137857, “Design and synthesis of substituted N-methylbenzamide analogues derived from SR 48,968 as neurokinin-2 receptor antagonists” (Bioorg Med Chem Lett, 2004).

Key:
Substance-K receptor = target: T1, Substance-K receptor (Bos taurus, UniProt P05363); experiment: Binding affinity against bovine Tachykinin receptor 2
T1 sequence (P05363 whole entry): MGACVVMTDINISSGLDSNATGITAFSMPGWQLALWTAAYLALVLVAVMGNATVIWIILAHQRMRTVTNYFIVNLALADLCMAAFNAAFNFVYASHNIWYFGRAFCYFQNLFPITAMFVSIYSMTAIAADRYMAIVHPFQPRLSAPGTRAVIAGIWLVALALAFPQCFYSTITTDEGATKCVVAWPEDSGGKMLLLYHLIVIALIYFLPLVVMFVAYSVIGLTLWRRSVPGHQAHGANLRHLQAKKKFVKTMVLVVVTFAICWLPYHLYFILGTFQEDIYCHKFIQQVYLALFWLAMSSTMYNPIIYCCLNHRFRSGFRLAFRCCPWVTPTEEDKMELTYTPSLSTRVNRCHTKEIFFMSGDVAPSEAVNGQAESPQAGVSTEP

[1] = Tested for the ability to inhibit maximum contraction obtained in the presence of [b-Ala8] NKA(4-10) in isolated guinea pig trachea
[2] = target: T2, Substance-K receptor (Cavia porcellus) (UniProt Q64077); experiment: Antagonistic activity against Tachykinin receptor 2 binding to [b-Ala8] NKA(4-10) in isolated guinea pig trachea
T2 sequence (whole entry): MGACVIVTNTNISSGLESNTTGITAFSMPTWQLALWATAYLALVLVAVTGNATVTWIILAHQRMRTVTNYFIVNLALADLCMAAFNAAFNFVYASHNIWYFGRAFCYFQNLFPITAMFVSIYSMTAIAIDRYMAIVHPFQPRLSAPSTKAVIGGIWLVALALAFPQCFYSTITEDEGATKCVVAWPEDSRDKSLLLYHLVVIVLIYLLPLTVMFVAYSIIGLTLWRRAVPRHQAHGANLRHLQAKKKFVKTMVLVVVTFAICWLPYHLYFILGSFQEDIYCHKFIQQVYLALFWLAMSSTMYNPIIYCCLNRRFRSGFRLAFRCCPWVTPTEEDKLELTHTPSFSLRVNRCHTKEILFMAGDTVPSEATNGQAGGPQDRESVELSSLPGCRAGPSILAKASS

SMILES	Ki (Substance-K receptor)	Response [1]	pKb [2]
CN(CC(CCN1CCC(O)(c2ccccc2)CC1)c1ccc(Cl)c(Cl)c1)C(=O)c1ccccc1 (stereo unspecified)	1 nM		
CN(C[C@H](CCN1CCC(O)(c2ccccc2)CC1)c1ccc(Cl)c(Cl)c1)C(=O)c1ccccc1[N+](=O)[O-]		92.7%	8.5
CN(C[C@H](CCN1CCC(O)(c2ccccc2)CC1)c1ccc(Cl)c(Cl)c1)C(=O)c1ccccc1N		98.2%	9.4
CN(C[C@H](CCN1CCC(O)(c2ccccc2)CC1)c1ccc(Cl)c(Cl)c1)C(=O)c1ccccc1NC(=O)CBr		97.1%	< 8
CN(C[C@H](CCN1CCC(O)(c2ccccc2)CC1)c1ccc(Cl)c(Cl)c1)C(=O)c1ccc(NC(=O)CBr)cc1		96%	8.3
CC(=O)NC1(c2ccccc2)CCN(CCC(CN(C)C(=O)c2ccccc2)c2ccc(Cl)c(Cl)c2)CC1 (single isomer, unassigned) [SAREDUTANT]	0.5 nM		9.1
CN(C[C@H](CCN1CCC(O)(c2ccccc2)CC1)c1ccc(Cl)c(Cl)c1)C(=O)c1ccc([N+](=O)[O-])cc1		98%	8.55
CN(C[C@H](CCN1CCC(O)(c2ccccc2)CC1)c1ccc(Cl)c(Cl)c1)C(=O)c1ccc(F)cc1		94.7%	9.7
CN(C[C@H](CCN1CCC(O)(c2ccccc2)CC1)c1ccc(Cl)c(Cl)c1)C(=O)c1cccc(N)c1		97.4%	9.4
CC(=O)Nc1ccccc1C(=O)N(C)C[C@H](CCN1CCC(O)(c2ccccc2)CC1)c1ccc(Cl)c(Cl)c1		98.3%	< 8
CN(C[C@H](CCN1CCC(O)(c2ccccc2)CC1)c1ccc(Cl)c(Cl)c1)C(=O)c1cccc(N=C=S)c1		95.8%	< 8
CN(C[C@H](CCN1CCC(O)(c2ccccc2)CC1)c1ccc(Cl)c(Cl)c1)C(=O)c1ccc(N=C=S)cc1		97.6%	< 8
CC(=O)Nc1cccc(C(=O)N(C)C[C@H](CCN2CCC(O)(c3ccccc3)CC2)c2ccc(Cl)c(Cl)c2)c1		96.3%	< 8
CN(C[C@H](CCN1CCC(O)(c2ccccc2)CC1)c1ccc(Cl)c(Cl)c1)C(=O)c1cccc(NC(=O)CBr)c1		98%	< 8
CN(C[C@H](CCN1CCC(O)(c2ccccc2)CC1)c1ccc(Cl)c(Cl)c1)C(=O)c1cccc([N+](=O)[O-])c1		98.6%	< 8
CN(C[C@H](CCN1CCC(O)(c2ccccc2)CC1)c1ccc(Cl)c(Cl)c1)C(=O)c1ccccc1		93.3%	
CN(C[C@H](CCN1CCC(O)(c2ccccc2)CC1)c1ccc(Cl)c(Cl)c1)C(=O)c1ccc(N)cc1		95.9%	9.1
CN(C[C@H](CCN1CCC(O)(c2ccccc2)CC1)c1ccc(Cl)c(Cl)c1)C(=O)c1ccccc1N=C=S		95.5%	8.5
CC(=O)Nc1ccc(C(=O)N(C)C[C@H](CCN2CCC(O)(c3ccccc3)CC2)c2ccc(Cl)c(Cl)c2)cc1		96.6%	8.4
